Columns and labels:
Conditions in all cases: stereoisomer not certain
[1] = RP, Waters CORTECS T3, 100 × 2.1 mm, 2.7 µm, 0.3 mL/min, estimated dead time 0.73 min; A: water + 0.1% formic acid, pH 3; B: methanol + 0.1% formic acid, pH 3; gradient (min/%B) 0/0 5/0 25/100 30/100 30.1/0 35/0
[2] = RP, Waters CORTECS T3, 100 × 2.1 mm, 2.7 µm, 0.2 mL/min, estimated dead time 1.1 min; A: water + 0.1% formic acid, pH 3; B: methanol + 0.1% formic acid, pH 3; gradient (min/%B) 0/0 1/0 6/5 30/100 35/100 35.1/0 40/0
[3] = RP, Waters CORTECS T3, 100 × 2.1 mm, 2.7 µm, 0.3 mL/min, estimated dead time 0.73 min; A: water + 0.1% formic acid, pH 3; B: methanol + 0.1% formic acid, pH 3; gradient (min/%B) 0/0 1/0 6/5 30/100 35/100 35.1/0 40/0
[4] = RP, Waters CORTECS T3, 100 × 2.1 mm, 2.7 µm, 0.2 mL/min, estimated dead time 1.1 min; A: water + 0.1% formic acid, pH 3; B: methanol + 0.1% formic acid, pH 3; gradient (min/%B) 0/5 5/5 25/95 25.1/100 35/100 35.1/5 45/5
[5] = RP, Waters CORTECS T3, 100 × 2.1 mm, 2.7 µm, 0.15 mL/min, estimated dead time 1.5 min; A: water + 0.1% formic acid, pH 3; B: methanol + 0.1% formic acid, pH 3; gradient (min/%B) 0/5 5/5 25/95 25.1/100 35/100 35.1/5 45/5
[6] = RP, Waters ACQUITY UPLC BEH C18, 100 × 2.1 mm, 1.7 µm, 0.2 mL/min, estimated dead time 1.1 min; A: water + 0.1% formic acid, pH 3; B: methanol + 0.1% formic acid, pH 3; gradient (min/%B) 0/5 5/5 25/100 30/100 30.1/5 35/5
[7] = RP, Waters CORTECS T3, 100 × 2.1 mm, 2.7 µm, 0.25 mL/min, estimated dead time 0.88 min; A: water + 0.1% formic acid, pH 3; B: methanol + 0.1% formic acid, pH 3; gradient (min/%B) 0/5 5/5 25/95 25.1/100 35/100 35.1/5 45/5
[8] = RP, Waters ACQUITY UPLC BEH C18, 100 × 2.1 mm, 1.7 µm, 0.1 mL/min, estimated dead time 2.2 min; A: water + 0.1% formic acid, pH 3; B: methanol + 0.1% formic acid, pH 3; gradient (min/%B) 0/5 5/5 25/95 25.1/100 35/100 35.1/5 45/5
[9] = RP, Waters ACQUITY UPLC BEH C18, 100 × 2.1 mm, 1.7 µm, 0.2 mL/min, estimated dead time 1.1 min; A: water + 0.025% formic acid + 20 mM ammonium acetate + 0.055% ammonium hydroxide, pH 7; B: methanol; gradient (min/%B) 0/5 5/5 25/100 30/100 30.1/5 35/5
[10] = HILIC, Merck SeQuant ZIC-HILIC, 150 × 2.1 mm, 5 µm, 0.75 mL/min, estimated dead time 0.44 min; A: water + 10 mM ammonium formate, pH 6; B: 5% water + 95% acetonitrile + 10 mM ammonium formate, pH 6; gradient (min/%B) 0/95 5/95 20/57 25/57 30/95 40/95
[11] = HILIC, Merck SeQuant ZIC-HILIC, 150 × 2.1 mm, 5 µm, 0.75 mL/min, estimated dead time 0.44 min; A: water + 0.1% acetic acid + 10 mM ammonium acetate, pH 4; B: 5% water + 95% acetonitrile + 0.1% acetic acid + 10 mM ammonium acetate, pH 4; gradient (min/%B) 0/95 5/95 20/57 25/57 30/95 40/95
[12] = HILIC, Waters XBridge BEH Amide, 100 × 2.1 mm, 2.5 µm, 0.5 mL/min, estimated dead time 0.44 min; A: water + 0.1% acetic acid + 10 mM ammonium acetate, pH 4; B: 5% water + 95% acetonitrile + 0.1% acetic acid + 10 mM ammonium acetate, pH 4; gradient (min/%B) 0/95 5/95 20/57 25/57 30/95 40/95
[13] = HILIC, Thermo Scientific Accucore HILIC, 100 × 2.1 mm, 2.6 µm, 0.5 mL/min, estimated dead time 0.44 min; A: water + 0.1% formic acid + 10 mM ammonium formate, pH 3; B: 5% water + 95% acetonitrile + 0.1% formic acid + 10 mM ammonium formate, pH 3; gradient (min/%B) 0/95 5/95 20/57 25/57 30/95 40/95
[14] = RP, Waters CORTECS T3, 100 × 2.1 mm, 2.7 µm, 0.3 mL/min, estimated dead time 0.73 min; A: water + 0.1% formic acid, pH 3; B: methanol + 0.1% formic acid, pH 3; gradient (min/%B) 0/5 5/5 25/100 30/100 30.1/5 35/5
[15] = RP, Waters CORTECS T3, 100 × 2.1 mm, 2.7 µm, 0.1 mL/min, estimated dead time 2.2 min; A: water + 0.1% formic acid, pH 3; B: methanol + 0.1% formic acid, pH 3; gradient (min/%B) 0/5 5/5 25/95 25.1/100 35/100 35.1/5 45/5
[16] = RP, Waters CORTECS T3, 100 × 2.1 mm, 2.7 µm, 0.3 mL/min, estimated dead time 0.73 min; A: water + 0.1% formic acid, pH 3; B: methanol + 0.1% formic acid, pH 3; gradient (min/%B) 0/5 5/5 25/95 25.1/100 35/100 35.1/5 45/5
[17] = RP, Waters ACQUITY UPLC BEH C18, 100 × 2.1 mm, 1.7 µm, 0.1 mL/min, estimated dead time 2.2 min; A: water + 0.1% formic acid, pH 3; B: methanol + 0.1% formic acid, pH 3; gradient (min/%B) 0/5 5/5 25/100 30/100 30.1/5 35/5
[18] = RP, Waters ACQUITY UPLC BEH C18, 100 × 2.1 mm, 1.7 µm, 0.1 mL/min, estimated dead time 2.2 min; A: water + 0.1% formic acid, pH 3; B: methanol + 0.1% formic acid, pH 3; gradient (min/%B) 0/5 5/5 25/95 25.1/100 35/100 35.1/5 45/5; remark: listed apart in the source
[19] = as above; remark: listed apart in the source
[20] = RP, Waters CORTECS T3, 100 × 2.1 mm, 2.7 µm, 0.3 mL/min, estimated dead time 0.73 min; A: water + 0.1% formic acid, pH 3; B: methanol + 0.1% formic acid, pH 3; gradient (min/%B) 0/0 5/0 25/100 30/100 30.1/0 35/0; remark: listed apart in the source
[21] = RP, Waters CORTECS T3, 100 × 2.1 mm, 2.7 µm, 0.2 mL/min, estimated dead time 1.1 min; A: water + 0.1% formic acid, pH 3; B: methanol + 0.1% formic acid, pH 3; gradient (min/%B) 0/0 1/0 6/5 30/100 35/100 35.1/0 40/0; remark: listed apart in the source
[22] = RP, Waters CORTECS T3, 100 × 2.1 mm, 2.7 µm, 0.1 mL/min, estimated dead time 2.2 min; A: water + 0.1% formic acid, pH 3; B: methanol + 0.1% formic acid, pH 3; gradient (min/%B) 0/0 1/0 6/5 30/100 35/100 35.1/0 40/0
[23] = RP, Waters CORTECS T3, 100 × 2.1 mm, 2.7 µm, 0.15 mL/min, estimated dead time 1.5 min; A: water + 0.1% formic acid, pH 3; B: methanol + 0.1% formic acid, pH 3; gradient (min/%B) 0/0 1/0 6/5 30/100 35/100 35.1/0 40/0
[24] = RP, Waters CORTECS T3, 100 × 2.1 mm, 2.7 µm, 0.3 mL/min, estimated dead time 0.73 min; A: water + 0.1% formic acid, pH 3; B: methanol + 0.1% formic acid, pH 3; gradient (min/%B) 0/0 1/0 6/5 30/100 35/100 35.1/0 40/0; remark: listed apart in the source
[25] = RP, Waters CORTECS T3, 100 × 2.1 mm, 2.7 µm, 0.25 mL/min, estimated dead time 0.88 min; A: water + 0.1% formic acid, pH 3; B: methanol + 0.1% formic acid, pH 3; gradient (min/%B) 0/0 1/0 6/5 30/100 35/100 35.1/0 40/0
[26] = RP, Waters ACQUITY UPLC BEH C18, 100 × 2.1 mm, 1.7 µm, 0.1 mL/min, estimated dead time 2.2 min; A: water + 0.045% formic acid + 0.11% ammonium hydroxide, pH 7; B: methanol; gradient (min/%B) 0/5 5/5 25/95 25.1/100 35/100 35.1/5 45/5

Row | Compound | LC retention time [1] [min] | LC retention time [2] [min] | LC retention time [3] [min] | LC retention time [4] [min] | LC retention time [5] [min] | LC retention time [6] [min] | LC retention time [7] [min] | LC retention time [8] [min] | LC retention time [9] [min] | LC retention time [10] [min] | LC retention time [11] [min] | LC retention time [12] [min] | LC retention time [13] [min] | LC retention time [14] [min] | LC retention time [15] [min] | LC retention time [16] [min] | LC retention time [17] [min] | LC retention time [18] [min] | LC retention time [19] [min] | also measured
1 | Cc1ncc(CO)c(C(=O)O)c1O [4-PYRIDOXATE] | 4.79 | 6.16 | 4.57 | 10.4 | 4.64 | 3.4 | 2.84 | 6.57 | 3.81 | 1.42 | 1.41 | 1.28 | 1.15 | – | – | – | – | – | – | –
2 | O=c1[nH]c(=O)c2[nH]c(=O)[nH]c2[nH]1 [URATE] | 0.93 | 1.38 | 0.92 | 2.72 | 1.78 | 1.38 | 1.08 | 2.7 | 1.36 | 12.3 | 11.6 | – | 8.77 | 0.93 | 2.66 | 0.9 | 2.74 | 2.66 | 2.72 | –
3 | O=C([O-])CCc1ccccc1O [3-(2-HYDROXYPHENYL)PROPANOATE] | 13.3 | 15.9 | 14.2 | 19.6 | 15.5 | 14.4 | 13.2 | 18.3 | 6.28 | 1.85 | 2.27 | 1.75 | 0.87 | – | – | – | – | – | – | –
4 | O=C(O)c1ccc2ccccc2c1[O-] [1-HYDROXY-2-NAPHTHOATE] | 19.1 | 23.3 | 21.7 | 26.8 | 21.9 | 21.1 | 19.9 | 25.1 | 14.1 | 1.33 | 1.27 | 1.05 | 0.82 | – | – | – | – | – | – | –
5 | N[C@@H](Cc1cc(I)c(O)c(I)c1)C(=O)O [3,5-DIIODO-L-TYROSINE] | – | – | – | – | – | – | – | – | – | – | – | – | 9.05 | 10.9 | 15.8 | 11.1 | 15.8 | 16.1 | 16.1 | LC retention time [20]: 12 min; LC retention time [21]: 14.1 min; LC retention time [22]: 12.5 min; LC retention time [23]: 15.4 min; LC retention time [24]: 12.6 min; LC retention time [25]: 13.3 min; LC retention time [26]: 10.8 min

From the RepoRT retention time repository (doi:10.1016/j.jchromb.2020.122105)
